Results as given in PubChem BioAssay (NCI).
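In this assay, cells in 96-well plates receive the compound at five concentrations for 48 hours. Endpoints are linearly interpolated between the surrounding concentrations. Abbreviation: GI50, concentration required for 50% inhibition of growth. TGI is the concentration that stops growth completely.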

Tests used:
Assay in all cases: NCI anticancer screen, dose series, 48 h
[1] = system: UACC-257 melanoma
[2] = system: OVCAR-8 ovarian
[3] = system: SK-MEL-2 melanoma
[4] = system: MOLT-4 leukemia
[5] = system: NCI-H460 lung
[6] = system: HCT-15 colon
[7] = system: LOX IMVI melanoma
[8] = system: SK-OV-3 ovarian
[9] = system: SW-620 colon
[10] = system: OVCAR-4 ovarian
[11] = system: OVCAR-5 ovarian
[12] = system: M14 melanoma
[13] = system: SK-MEL-28 melanoma
[14] = system: SF-539 CNS
[15] = system: NCI-H522 lung
[16] = system: A498 renal
[17] = system: KM12 colon
[18] = system: NCI-H226 lung
[19] = system: UO-31 renal
[20] = system: RPMI-8226 leukemia
[21] = system: LXFL 529 NSCLC
[22] = system: U251 CNS
[23] = system: IGROV1 ovarian
[24] = system: SNB-75 CNS
[25] = system: OVCAR-3 ovarian
[26] = system: A549 NSCLC
[27] = system: M19-MEL melanoma
[28] = system: HCT-116 colon
[29] = system: K-562 leukemia
[30] = system: SNB-19 CNS
[31] = system: HL-60(TB) leukemia
[32] = system: MALME-3M melanoma
[33] = system: SF-295 CNS
[34] = system: UACC-62 melanoma
[35] = system: HCC-2998 colon
[36] = system: HT29 colon
[37] = system: SN12C renal
[38] = system: HOP-62 NSCLC
[39] = system: 786-0 renal
[40] = system: KM20L2 colon
[41] = system: CAKI-1 renal
[42] = system: SF-268 CNS
[43] = system: SK-MEL-5 melanoma
[44] = system: ACHN renal
[45] = system: RXF 393 renal
[46] = system: SNB-78 CNS
[47] = system: HOP-92 NSCLC
[48] = system: HOP-18 NSCLC
[49] = system: DMS 114 small cell lung
[50] = system: NCI-H23 lung
[51] = system: CCRF-CEM leukemia
[52] = system: EKVX NSCLC
[53] = system: TK-10 renal
[54] = system: COLO 205 colon
[55] = system: DMS 273 small cell lung
[56] = system: DLD-1 colon
[57] = system: XF 498 CNS

## CC(=O)[CH-]C(=O)c1ccccc1.CC(=O)[CH-]C(=O)c1ccccc1.CCN(CC)CC[O-].CCN(CC)CC[O-].Cl.[Ti+4]
[1]
  GI50: 24.3 µM
  TGI: 96.1 µM
[2]
  GI50: 38.8 µM
  TGI: > 100 µM
[3]
  GI50: 26.9 µM
  TGI: 93.9 µM
[4]
  GI50: 16.8 µM
  TGI: 59.9 µM
[5]
  GI50: 29.8 µM
  TGI: > 100 µM
[6]
  GI50: 36.4 µM
  TGI: > 100 µM
[7]
  GI50: 43.4 µM
  TGI: > 100 µM
[8]
  GI50: 32.6 µM
  TGI: > 100 µM
[9]
  GI50: 45.9 µM
  TGI: > 100 µM
[10]
  GI50: 56.5 µM
  TGI: > 100 µM
[11]
  GI50: 59.6 µM
  TGI: > 100 µM
[12]
  GI50: 22.5 µM
  TGI: 45.9 µM
[13]
  GI50: 32.9 µM
  TGI: 92.6 µM
[14]
  GI50: 27.2 µM
  TGI: 76.5 µM
[15]
  GI50: 17.1 µM
  TGI: 43 µM
[16]
  GI50: 26.2 µM
  TGI: 72.5 µM
[17]
  GI50: 20 µM
  TGI: 59.6 µM
[18]
  GI50: 23 µM
  TGI: 62.4 µM
[19]
  GI50: 21.1 µM
  TGI: 74.8 µM
[20]
  GI50: 38.3 µM
  TGI: > 100 µM
[21]
  GI50: 22.2 µM
  TGI: 68.3 µM
[22]
  GI50: 25.2 µM
  TGI: > 100 µM
[23]
  GI50: 45.8 µM
  TGI: > 100 µM
[24]
  GI50: 21.9 µM
  TGI: 47.3 µM
[25]
  GI50: 28.3 µM
  TGI: > 100 µM
[26]
  GI50: 27.9 µM
  TGI: 98.6 µM
[27]
  GI50: 17.6 µM
  TGI: 52.2 µM
[28]
  GI50: 27.2 µM
  TGI: > 100 µM
[29]
  GI50: 37.8 µM
  TGI: > 100 µM
[30]
  GI50: 23.7 µM
  TGI: 69.5 µM
[31]
  GI50: 19.6 µM
  TGI: 61.2 µM
[32]
  GI50: 22.8 µM
  TGI: 60.8 µM
[33]
  GI50: 37.9 µM
  TGI: 86.7 µM
[34]
  GI50: 36 µM
  TGI: 91.6 µM
[35]
  GI50: 23.1 µM
  TGI: 76.6 µM
[36]
  GI50: 24 µM
  TGI: 59.6 µM
[37]
  GI50: 39.5 µM
  TGI: > 100 µM
[38]
  GI50: 37.4 µM
  TGI: > 100 µM
[39]
  GI50: 45.5 µM
  TGI: > 100 µM
[40]
  GI50: 28.9 µM
  TGI: > 100 µM
[41]
  GI50: 40.1 µM
  TGI: > 100 µM
[42]
  GI50: 35.2 µM
  TGI: > 100 µM
[43]
  GI50: 27.9 µM
  TGI: > 100 µM
[44]
  GI50: 39.5 µM
  TGI: > 100 µM

## C=C(c1ccccc1N)[C@@]1(O)C[C@H](/C(=C\C)CO)C[C@@H]1NCc1ccccc1
[1]
  TGI: 32.3 µM
[45]
  TGI: 49.3 µM
[2]
  TGI: 53.2 µM
[3]
  TGI: 39.2 µM
[4]
  TGI: 39.7 µM
[5]
  TGI: 42.8 µM
[6]
  TGI: > 100 µM
[7]
  TGI: 31.6 µM
[46]
  TGI: 79.7 µM
[8]
  TGI: 73.7 µM
[9]
  TGI: 50 µM
[10]
  TGI: > 100 µM
[12]
  TGI: 28.5 µM
[13]
  TGI: 33 µM
[14]
  TGI: 29.9 µM
[15]
  TGI: 33.4 µM
[16]
  TGI: > 100 µM
[17]
  TGI: 33.7 µM
[18]
  TGI: 33.4 µM
[19]
  TGI: 42.3 µM
[20]
  TGI: 42.5 µM
[47]
  TGI: 27.5 µM
[22]
  TGI: 33.3 µM
[23]
  TGI: > 100 µM
[48]
  TGI: 52.4 µM
[24]
  TGI: 24.6 µM
[25]
  TGI: 45.8 µM
[26]
  TGI: > 100 µM
[49]
  TGI: 33.9 µM
[27]
  TGI: 62.1 µM
[50]
  TGI: > 100 µM
[28]
  TGI: 28.7 µM
[51]
  TGI: 57.2 µM
[29]
  TGI: 39.5 µM
[30]
  TGI: 79.5 µM
[52]
  TGI: > 100 µM
[31]
  TGI: 29.9 µM
[32]
  TGI: 28.4 µM
[33]
  TGI: 30.5 µM
[34]
  TGI: > 100 µM
[35]
  TGI: 30.9 µM
[36]
  TGI: 32.7 µM
[37]
  TGI: > 100 µM
[38]
  TGI: > 100 µM
[39]
  TGI: 46 µM
[53]
  TGI: 44.1 µM
[40]
  TGI: 42.6 µM
[54]
  TGI: 33 µM
[42]
  TGI: > 100 µM
[43]
  TGI: 32.8 µM
[44]
  TGI: > 100 µM
[55]
  TGI: 84.5 µM

## O=C1C2=C(c3ccccc31)C(c1cccc(Cl)c1)NC(=S)N2 (stereo not drawn)
[1]
  TGI: > 100 µM
[2]
  TGI: > 100 µM
[3]
  TGI: > 100 µM
[4]
  TGI: > 100 µM
[5]
  TGI: > 100 µM
[6]
  TGI: > 100 µM
[8]
  TGI: > 100 µM
[9]
  TGI: > 100 µM
[10]
  TGI: > 100 µM
[56]
  TGI: > 100 µM
[11]
  TGI: > 100 µM
[12]
  TGI: > 100 µM
[13]
  TGI: > 100 µM
[14]
  TGI: > 100 µM
[15]
  TGI: > 100 µM
[57]
  TGI: > 100 µM
[16]
  TGI: > 100 µM
[17]
  TGI: > 100 µM
[18]
  TGI: > 100 µM
[19]
  TGI: > 100 µM
[20]
  TGI: > 100 µM
[21]
  TGI: > 100 µM
[47]
  TGI: > 100 µM
[22]
  TGI: > 100 µM
[23]
  TGI: > 100 µM
[24]
  TGI: > 100 µM
[25]
  TGI: > 100 µM
[26]
  TGI: > 100 µM
[49]
  TGI: > 100 µM
[27]
  TGI: > 100 µM
[50]
  TGI: > 100 µM
[28]
  TGI: > 100 µM
[51]
  TGI: > 100 µM
[29]
  TGI: > 100 µM
[30]
  TGI: > 100 µM
[52]
  TGI: > 100 µM
[31]
  TGI: > 100 µM
[32]
  TGI: > 100 µM
[33]
  TGI: > 100 µM
[34]
  TGI: > 100 µM
[35]
  TGI: > 100 µM
[36]
  TGI: > 100 µM
[37]
  TGI: > 100 µM
[38]
  TGI: > 100 µM
[39]
  TGI: > 100 µM
[53]
  TGI: > 100 µM
[40]
  TGI: > 100 µM
[54]
  TGI: > 100 µM
[41]
  TGI: > 100 µM
[42]
  TGI: > 100 µM
[43]
  TGI: > 100 µM
[44]
  TGI: > 100 µM
[55]
  TGI: > 100 µM
